For two molecules, MIC results are on record in ChEMBL document CHEMBL1153275, “Tyrokeradines A and B, new bromotyrosine alkaloids with an imidazolyl-quinolinone moiety from a verongid sponge” (2009).

Common to all, as to format: functional
One test deals with Micrococcus luteus. In words: Antimicrobial activity against Micrococcus luteus.
Another test relates to Staphylococcus aureus. The test can be described thus: Antimicrobial activity against Staphylococcus aureus.
The subject of test [1] is Trichophyton mentagrophytes. The test can be described thus: Antimicrobial activity against Trichophyton mentagrophytes.
The test system of another test is Cryptococcus neoformans. The test can be described thus: Antimicrobial activity against Cryptococcus neoformans.
The test system of the next test is Candida albicans. The test can be described thus: Antimicrobial activity against Candida albicans.
Another test concerns Aspergillus niger. The test can be described thus: Antimicrobial activity against Aspergillus niger.

Converted amounts (≈) assume the structure as drawn.

As usually defined, the MIC is the lowest concentration that inhibits growth of the organism. A low value points to inhibition by little substance. For the molecule `NCCCOc1c(Br)cc(C/C(=N\O)C(=O)NCCc2nc(N)[nH]c2-c2cc(O)c3[nH]cc(O)c(=O)c3c2O)cc1Br` [TYROKERADINE B], the MIC in the test with Micrococcus luteus was 25 µg/mL (≈ 35.2 µM); in the test with Staphylococcus aureus it was 25 µg/mL (≈ 35.2 µM); in test [1] it was 25 µg/mL (≈ 35.2 µM); in the test with Cryptococcus neoformans, 12.5 µg/mL (≈ 17.6 µM); against Candida albicans it was 12.5 µg/mL (≈ 17.6 µM); in the test with Aspergillus niger, 12.5 µg/mL (≈ 17.6 µM).

On to `C[N+](C)(C)CCCOc1c(Br)cc(C/C(=N\O)C(=O)NCCc2nc(N)[nH]c2-c2cc(O)c3[nH]cc(O)c(=O)c3c2O)cc1Br` [TYROKERADINE A], for which the MIC (in the test with Micrococcus luteus; against Staphylococcus aureus; in test [1]; against Cryptococcus neoformans; against Candida albicans; against Aspergillus niger) was greater than 25 µg/mL throughout.
